Reference: US5437980A, “Phenanthridium dye staining of nucleic acids in living cells” (Molecular Probes, Inc., priority 1993, dated 1995)

Tests used:
tissue culture cells = test: Entry into / staining pattern of tissue culture cells; format: cell-based
Excerpt: In some tissue culture cells, the pattern of staining is different from that observed in plant cells or bacteria. In the former case, cells are usually loaded with a brief pulse of dye, followed by a chase of buffered saline solution. These cells show a pattern of staining first in numerous intracellular compartments; e.g. lysosomes. In addition to staining these organelles first, the dyes also undergo a spectral shift to shorter wavelengths when associated with this "early-labeled compartment." If the same cells are exposed to pulses of higher concentrations of the 5-DAPP/LIVE dyes, the staining appears in the mitochondria (tubular structures that are labeled with rhodamine 123) and then, finally, in the nucleus, where it stains the nucleoli very brightly. Nucleoli are the most prominently stained area of higher eukaryotic cells, while the nuclei and cytosol usually stain in a hazy or punctate pattern in these cells. […] In plant tissues distinct nuclei tend to label uniformly, but there is frequently significant binding of the dye to cell walls. The plant cells are usually dark except for cell walls and nuclei. The characteristic binding morphology obtained using the 5-DAPP/LIVE dyes thus makes them useful in certain circumstances for identifying the type of cell in a mixed population of cells.

[1] = system: peripheral blood lymphocytes; test: Staining of peripheral blood lymphocytes, fluorometer (Example 11); format: cell-based, goat; settings: on the scale of seconds
Description: Peripheral blood lymphocytes (PBL) are isolated from fresh heparinized goat blood and resuspended in buffer consisting of 135 mM NaCl, 5 mM KCl, 20 mM HEPES, 1 mM CaCl2, 1 mM MgCl2, pH 7.4 (HBSS+). The cells are resuspended to 10^6 mL (as determined by direct microscopic count using a standard hemocytometer) in a final volume of 3 mL in the above buffer in a quartz cuvette. 5-DAPP/LIVE dye stocks are prepared to final concentrations of 2 mM in DMSO. 3 μL of the octidium dye stock solution is injected into the cuvette to a final concentration of 2 μM. In a fluorometer, the sample is excited at 520 nm and fluorescence emission is monitored at 600 nm over the time required for the fluorescence signal to become stable. Hexidium, butidium and ethidium bromide are injected into separate samples of PBL to determine the relative rates of uptake for these stains. The volume of dye solution added to the cuvette is corrected by a factor relating the absorbance of the dye to the absorbance of a 2 mM octidium solution.

CCCCCC[n+]1c(-c2ccccc2)c2cc(N)ccc2c2ccc(N)cc21 [hexidium]
staining of cells loaded to equilibrium / staining pattern (tissue culture cells): both intense cytoplasmic and nuclear staining
distribution of dye into nucleus of lymphocytes [1]: virtually instantaneous
